Experimental data reported in patent US10702512B2, “Treatment of debilitating fatigue” (A. CARLSSON RESEARCH AB, priority 2015, dated 2020).

Key:
Type in all cases: in vivo, human
ME/CFS patients [1] = assay: Beck Depression Inventory (BDI) total score, phase II clinical study; conditions: 2-way ANOVA, OSU6162 vs placebo
Protocol: Circular coated tablets for oral use of 15 mg and matching placebos was used. The tablets were administered by research nurses at the study site. The tablets were circular coated tablets for oral use containing 15 mg OSU6162. Matching placebos were used. The start dose was 15 mg OSU6162 twice daily (before breakfast and lunch) during 1 week with dose increase up to 30 mg twice daily during the following week. Additionally, the clinical effect was evaluated using the FF-scale, The Beck/BDI scale, VAS pain scale and with neuropsychological tests. To examine the effect of treatment and concomitant use of an antidepressant, antidepressant was included as a fixed factor in the analyses. […] Outcome targets FF, MFS and BDI were measured.

ME/CFS patients [2] = assay: Trail making test A (TMT A)
Protocol: Next, patients were evaluated using a neuropsychological test. 61 patients were included in a neuropsychological examination. All subjects were tested once in connection with the randomization with the BNIS neuropsychological screening test. 20-30 minutes was required for this test. With the purpose of measuring the cognitive effects of the OSU6162 treatment six more tests were distributed at a first occasion before the initiation of treatment and at a second occasion after the treatment was completed. These tests required 20 minutes each. All tests were performed by a neuropsychologist. Trail making test A (TMT A) requires the subject to draw a line as quickly as possible connecting a series of numbers. It is a time-based measure of attention, where time and quality are noted and requires motor effectiveness, visual scanning, speed and flexibility. The test has a high sensitivity for brain dysfunction.

ME/CFS patients [3] = assay: Coding test (WAIS subtest); parameters: key to Coding test score, min / Coding test score, max / Coding test, Difference, increased mean / Coding test score, mean / Coding test score, median: number of symbols correctly copied within 90 seconds
Protocol: Next, patients were evaluated using a neuropsychological test. 61 patients were included in a neuropsychological examination. All subjects were tested once in connection with the randomization with the BNIS neuropsychological screening test. 20-30 minutes was required for this test. With the purpose of measuring the cognitive effects of the OSU6162 treatment six more tests were distributed at a first occasion before the initiation of treatment and at a second occasion after the treatment was completed. These tests required 20 minutes each. All tests were performed by a neuropsychologist. The Coding test is a subtest from WAIS, Wechsler Adult Intelligence Scale and measures the processing speed. The performance reflects abilities such as visual-motor coordination, motor and mental speed and working memory. It requires the subject to copy, as quickly and correctly as possible, nine symbols, one by one in 93 boxes, placed below each number. The symbol connected with the numbers is available. The score is the number of symbols registered within 90 seconds.

ME/CFS patients [4] = assay: Stroop tests (Victoria version); parameters: Stroop 2, mean / Stroop 2, Difference / Stroop 2, median / Stroop 3, mean / Stroop 3, Difference / Stroop 3, median / Stroop 1, mean / Stroop 1, Difference / Stroop 1, median: unit not given here
Protocol: Next, patients were evaluated using a neuropsychological test. 61 patients were included in a neuropsychological examination. All subjects were tested once in connection with the randomization with the BNIS neuropsychological screening test. 20-30 minutes was required for this test. With the purpose of measuring the cognitive effects of the OSU6162 treatment six more tests were distributed at a first occasion before the initiation of treatment and at a second occasion after the treatment was completed. These tests required 20 minutes each. All tests were performed by a neuropsychologist. The Stroop test (Victoria version) is a time-based test sensitive to frontal lobe dysfunction. It measures executive functioning and is validated and used internationally. Depression and anxiety could influence the results. Speeds of processing and conceptual abilities contribute to the performance. It also reflects the ability of concentration. The test consists of three cards each containing six rows of four items. Stroop I is on the first card. In this subtest the subject must name as quickly as possible the color of 24 dots printed in blue, green, red and yellow. Each color is used six times and the four colors are arranged in pseudo-random order within the array, each color appears once in a row. Stroop 2 is on the second card. In this subtest the dots are replaced by common words printed in lower-case letters. The subject is required to name the colors in which the stimuli are presented and to disregard their verbal content. Stroop 3 is on the third card. In this subtest the colored stimuli are the color names “blue, green, red and yellow” printed in lower case letters so that the print color never corresponds to the color name.

ME/CFS patients [5] = assay: neuropsychological tests of cognitive functioning, overall; conditions: all neuropsychological tests employed; no significant difference vs placebo

CCCN1CCC[C@@H](c2cccc(S(C)(=O)=O)c2)C1.Cl [OSU6162, (3S)-3-[3-(methylsulfonyl)-phenyl]-1-propylpiperidine hydrochloride]
BDI main effect of treatment (ME/CFS patients [1]): None
TMT A, max (ME/CFS patients [2]; after treatment): 48 s
TMT A, mean (ME/CFS patients [2]; after treatment): 28.5
TMT A, median (ME/CFS patients [2]; after treatment): 29
TMT A, min (ME/CFS patients [2]; after treatment): 15
TMT A difference between OSU6162 and placebo groups (ME/CFS patients [2]; before and after treatment): No significant differences
TMT A, max (ME/CFS patients [2]; before treatment): 57 s
TMT A, mean (ME/CFS patients [2]; before treatment): 33.4
TMT A, median (ME/CFS patients [2]; before treatment): 32
TMT A, min (ME/CFS patients [2]; before treatment): 16
TMT A, Difference (ME/CFS patients [2]; before vs after treatment): 10
Coding test score, max (ME/CFS patients [3]; after treatment): 93
Coding test score, mean (ME/CFS patients [3]; after treatment): 56.29
Coding test score, median (ME/CFS patients [3]; after treatment): 56
Coding test score, min (ME/CFS patients [3]; after treatment): 37
Coding test, Difference, increased mean (ME/CFS patients [3]; after vs before treatment): 5
Coding test difference between OSU6162 and placebo groups (ME/CFS patients [3]; before and after treatment): No significant differences
Coding test score, max (ME/CFS patients [3]; before treatment): 80
Coding test score, mean (ME/CFS patients [3]; before treatment): 51.42
Coding test score, median (ME/CFS patients [3]; before treatment): 51
Coding test score, min (ME/CFS patients [3]; before treatment): 31
Stroop 1, max (ME/CFS patients [4]; after treatment): 20 s
Stroop 1, mean (ME/CFS patients [4]; after treatment): 12.77
Stroop 1, median (ME/CFS patients [4]; after treatment): 12
Stroop 1, min (ME/CFS patients [4]; after treatment): 8
Stroop 2, max (ME/CFS patients [4]; after treatment): 29 s
Stroop 2, mean (ME/CFS patients [4]; after treatment): 16.9
Stroop 2, median (ME/CFS patients [4]; after treatment): 16
Stroop 2, min (ME/CFS patients [4]; after treatment): 9
Stroop 3, max (ME/CFS patients [4]; after treatment): 62 s
Stroop 3, mean (ME/CFS patients [4]; after treatment): 23.48
Stroop 3, median (ME/CFS patients [4]; after treatment): 23
Stroop 3, min (ME/CFS patients [4]; after treatment): 12
Stroop tests difference between OSU6162 and placebo groups (ME/CFS patients [4]; before and after treatment): No significant differences
Stroop 1, max (ME/CFS patients [4]; before treatment): 22 s
Stroop 1, mean (ME/CFS patients [4]; before treatment): 13.97
Stroop 1, median (ME/CFS patients [4]; before treatment): 14
Stroop 1, min (ME/CFS patients [4]; before treatment): 9
Stroop 2, max (ME/CFS patients [4]; before treatment): 39 s
Stroop 2, mean (ME/CFS patients [4]; before treatment): 19.5
Stroop 2, median (ME/CFS patients [4]; before treatment): 19
Stroop 2, min (ME/CFS patients [4]; before treatment): 10
Stroop 3, max (ME/CFS patients [4]; before treatment): 51 s
Stroop 3, mean (ME/CFS patients [4]; before treatment): 26.8
Stroop 3, median (ME/CFS patients [4]; before treatment): 24
Stroop 3, min (ME/CFS patients [4]; before treatment): 14
Stroop 1, Difference (ME/CFS patients [4]; before vs after treatment): 1.2
Stroop 2, Difference (ME/CFS patients [4]; before vs after treatment): 3.2
Stroop 3, Difference (ME/CFS patients [4]; before vs after treatment): 4.9
effect of treatment on cognitive abilities (ME/CFS patients [5]): does not affect the cognitive abilities
